Consider 1 compound from US20030143645A1, “Quinone reductase 2 and aldehyde dehydrogenase as therapeutic targets” (priority 2001, published 2003).

Some results are limits rather than exact numbers.

The target of experiment [1] is QR1 (Oryctolagus cuniculus, UniProt U3KNP2). Kind of experiment: QR1 activity assay (Example 2). Details: QR1 was purified from rabbit liver as previously described; from tissue; host or cells: rabbit liver. Format: biochemical, rabbit. On the procedure:
Purification of native ALDH1, QR2 and QR1. RBC extract was prepared as described above and applied to PQ-Sepharose equilibrated in buffer A. ALDH1 and QR2 were obtained by eluting the column with 5 mM b-NAD^+ and NMeH respectively.
ALDH1, QR2 and QR1 activity assays. […] Reaction products were separated with a gradient of acetonitrile in 10 mM triethylamine acetic acid. […] QR1 IC50 values were calculated using GraphPad Prism.

Experiment [2] deals with T1, ALDH1 (Homo sapiens, UniProt P00352).
T1 construct: Purification of native ALDH1, QR2 and QR1; RBC extract was prepared as described above and applied to PQ-Sepharose; tissue Valley Biomedical (blood); host or cells: human red blood cells
T1 sequence (P00352 1-501): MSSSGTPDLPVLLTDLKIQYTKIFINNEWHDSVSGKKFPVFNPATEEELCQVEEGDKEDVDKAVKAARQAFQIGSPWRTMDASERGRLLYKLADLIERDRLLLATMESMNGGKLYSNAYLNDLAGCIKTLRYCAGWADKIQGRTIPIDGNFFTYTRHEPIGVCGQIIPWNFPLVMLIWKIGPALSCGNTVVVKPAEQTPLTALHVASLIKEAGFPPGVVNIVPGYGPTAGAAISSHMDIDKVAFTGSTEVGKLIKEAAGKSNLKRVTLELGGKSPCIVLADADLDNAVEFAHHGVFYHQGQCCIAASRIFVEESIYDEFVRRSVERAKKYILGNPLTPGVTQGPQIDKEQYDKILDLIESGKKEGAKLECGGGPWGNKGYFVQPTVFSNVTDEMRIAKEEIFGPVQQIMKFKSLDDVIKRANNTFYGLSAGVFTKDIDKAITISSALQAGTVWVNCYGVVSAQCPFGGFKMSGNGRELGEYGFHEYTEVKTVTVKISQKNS
Put plainly: ALDH1 HPLC-based activity assay (Example 2). Format: biochemical. The conditions noted are these: physiological concentrations of NAD+. On the procedure: Purification of native ALDH1, QR2 and QR1. RBC extract was prepared as described above and applied to PQ-Sepharose equilibrated in buffer A. ALDH1 and QR2 were obtained by eluting the column with 5 mM b-NAD^+ and NMeH respectively. QR1 was purified from rabbit liver as previously described (Lind et al, Methods Enzymol. 186:287-301 (1990)). All enzymes were sequenced to confirm their identify and were >90% pure as judged by SDS-PAGE and silver staining.
ALDH1, QR2 and QR1 activity assays. ALDH1 activity was determined using an HPLC-based assay because of the co-absorbance of CQ and NADH at 340 nm. Reaction products were separated with a gradient of acetonitrile in 10 mM triethylamine acetic acid. CQ and NADH peaks were identified by their signature spectra using an online photodiode array detector. QR2 activity was assayed in triplicate with recombinant QR2 (at 96 ng/mL) by measuring the absorbance at 365 nm in a buffer containing 50 mM Tris-HCl, pH 8.5, 50 μM NMeH, 5-30 μM menadione, and 0.1% Triton X-100. […] QR2 K1 values were calculated using KinetAsyst II by fitting the experimental data to the equations of Cleland (Methods Enzymol. 63:103-138 (1979)). […] QR1 IC50 values were calculated using GraphPad Prism.
The quinolines inhibit ALDH1 and QR2. […] Because of the co-absorbance of NADH and CQ at 340 nm, an HPLC based assay was developed to determine the effects of CQ on ALDH1 activity.

QR1, sequence (U3KNP2 1-274): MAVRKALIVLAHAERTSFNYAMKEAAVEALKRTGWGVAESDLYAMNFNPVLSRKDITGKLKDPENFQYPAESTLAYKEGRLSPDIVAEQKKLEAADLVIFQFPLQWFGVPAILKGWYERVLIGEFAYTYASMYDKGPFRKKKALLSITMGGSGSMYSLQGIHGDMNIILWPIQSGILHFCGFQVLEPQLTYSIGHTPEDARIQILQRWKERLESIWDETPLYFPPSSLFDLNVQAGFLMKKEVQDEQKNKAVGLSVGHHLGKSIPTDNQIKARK

One may read the IC50 as the concentration that inhibits the measured activity by half. A high value points to lower potency. For the compound `CCN(CC)CCCC(C)Nc1ccnc2cc(Cl)ccc12` (stereo not drawn) [CQ, chloroquine], in experiment [1], the IC50 is more than 1000 µM and the “effect on QR1 activity” value was “not affected”. Also, in experiment [2], the half-inhibitory concentration (IC50) is 500 µM.
